Results published in patent publication US9012655B2, “Antimicrobial/adjuvant compounds and methods” (Denouamed, Inc., priority 2011, dated 2015).
Values after ≈ are worked out from the molar mass of the structure shown.

Columns and labels:
Assay in all cases: MIC panel of challenge pathogens (CLSI)
Assay type in all cases: cell-based
[1] = tested on: Staphylococcus aureus EUP MRSA004; settings: EUPMRSA004, Staphylococcus aureus EUP MRSA004; for MIC: read-out: 100% inhibition; for MIC50: read-out: MIC50 (50%); for MIC80: read-out: MIC80 (80%)
Description: (§1) The inocula for each bacterial strain were prepared by picking 5-10 distinct colonies from the culture plates and suspending them in the appropriate broth as per Clinical and Laboratory Standards Institute (CLSI) guidelines M07-A8, M24-A or M11-A7 as appropriate. The inoculum was resuspended by vigorous shaking on a vortex mixer for 15 s. The turbidity was then adjusted to McFarland standard 0.5 ([…]). The inoculum was further diluted in the appropriate media for MIC tests to give a final inoculum in each well of 2-8×10^5 CFU/ml. MICs were tested in the appropriate broth in accordance with the appropriate CLSI guidelines.
(§2) A stock solution of each compound was prepared at a concentration of 1.28 g/L in DMSO. The stock was further diluted in the appropriate media to give a top starting concentration of 128 mg/L in the assay. 100 μL of the appropriate media, as per CLSI guidelines, was dispensed into each well in columns 2-12. 200 μL of the each compound solution (at 256 mg/L) was dispensed into each well in column 1. 100 μL aliquots were pipetted from column 1 wells and dispensed into column 2 with a multichannel pipette (±2% coefficient of variation) thus diluting two-fold. 100 μL samples were then pipetted from column 2 wells and dispensed into column 3. The process was repeated through to column 10. The final 100 μL of diluted drug from column 10 was then discarded. Row 11 acted as a positive control (no compound, but organisms added), Row 12 acted as a negative control (no compound, and no organisms added).
(§3) 100 μL of the appropriate inoculum suspension in the appropriate media, as per CLSI guidelines, was added to the appropriate wells. […] All plates were incubated in the dark under aerobic or anaerobic conditions at 30-37° C. for 24-48 hours, according to the appropriate CLSI guideline. Plates were read visually 24-48 hours post inoculation. Endpoints of 100% inhibition were determined (CLSI interpretation endpoints following visual examination).
(§4) MIC50, MIC80, and 100% inhibition results are reported below in μg/mL in the following Tables, indicating each compound tested against a given species and strain: […]

[2] = tested on: Staphylococcus aureus NRS382; settings: Staphylococcus aureus NRS382; for MIC: read-out: 100% inhibition; for MIC50: read-out: MIC50 (50%); for MIC80: read-out: MIC80 (80%)
Description: as §1, §2, §3, §4

[3] = tested on: Staphylococcus aureus NRS2 (ATCC700698); settings: Staphylococcus aureus NRS2 (ATCC700698); for MIC: read-out: 100% inhibition; for MIC50: read-out: MIC50 (50%); for MIC80: read-out: MIC80 (80%)
Description: as §1, §2, §3, §4

[4] = tested on: Staphylococcus aureus NRS384; settings: Staphylococcus aureus NRS384; for MIC: read-out: 100% inhibition; for MIC50: read-out: MIC50 (50%); for MIC80: read-out: MIC80 (80%)
Description: as §1, §2, §3, §4

[5] = tested on: Staphylococcus aureus AUR58 7005; settings: AUR587005, Staphylococcus aureus AUR58 7005; for MIC: read-out: 100% inhibition; for MIC50: read-out: MIC50 (50%); for MIC80: read-out: MIC80 (80%)
Description: as §1, §2, §3, §4

[6] = tested on: Staphylococcus aureus NRS383; settings: Staphylococcus aureus NRS383; for MIC: read-out: 100% inhibition; for MIC50: read-out: MIC50 (50%); for MIC80: read-out: MIC80 (80%)
Description: as §1, §2, §3, §4

[7] = tested on: Enterococcus faecalis ATCC51299; settings: Enterococcus faecalis ATCC51299; for MIC: read-out: 100% inhibition; for MIC50: read-out: MIC50 (50%); for MIC80: read-out: MIC80 (80%)
Description: as §1, §2, §3, §4

[8] = tested on: Staphylococcus aureus EUP SAU040; settings: EUPSAU040, Staphylococcus aureus EUP SAU040; for MIC: read-out: 100% inhibition; for MIC50: read-out: MIC50 (50%); for MIC80: read-out: MIC80 (80%)
Description: as §1, §2, §3, §4

[9] = tested on: Staphylococcus aureus AUR131 007035; settings: AUR131007035, Staphylococcus aureus AUR131 007035; for MIC: read-out: 100% inhibition; for MIC50: read-out: MIC50 (50%); for MIC80: read-out: MIC80 (80%)
Description: as §1, §2, §3, §4

SMILES	MIC [1] [µg/mL]	MIC50 [1] [µg/mL]	MIC80 [1] [µg/mL]	MIC [2] [µg/mL]	MIC50 [2] [µg/mL]	MIC80 [2] [µg/mL]	MIC [3] [µg/mL]	MIC50 [3] [µg/mL]	MIC80 [3] [µg/mL]	MIC [4] [µg/mL]	MIC50 [4] [µg/mL]	MIC80 [4] [µg/mL]	MIC [5] [µg/mL]	MIC50 [5] [µg/mL]	MIC80 [5] [µg/mL]	MIC [6] [µg/mL]	MIC50 [6] [µg/mL]	MIC80 [6] [µg/mL]	MIC [7] [µg/mL]	MIC50 [7] [µg/mL]	other results
CC(C)c1cc(Cl)ccc1-c1cc(C(=O)O)sc1-c1ccc(Cl)cc1C(C)C [DNM0566, 4,5-Bis(4-chloro-2-isopropylphenyl)thiophene-2-carboxylic acid]	≤ 0.25	≤ 0.25	≤ 0.25	0.5 (≈ 1.15 µM)	0.5 (≈ 1.15 µM)	0.5 (≈ 1.15 µM)	0.5 (≈ 1.15 µM)	0.25 (≈ 0.577 µM)	0.5 (≈ 1.15 µM)	0.5 (≈ 1.15 µM)	0.5 (≈ 1.15 µM)	0.5 (≈ 1.15 µM)	1 (≈ 2.31 µM)	1 (≈ 2.31 µM)	1 (≈ 2.31 µM)	≤ 0.25	≤ 0.25	≤ 0.25	0.5 (≈ 1.15 µM)	0.5 (≈ 1.15 µM)	MIC80 [7]: 0.5 µg/mL (≈ 1.15 µM); MIC [8]: 0.5 µg/mL (≈ 1.15 µM); MIC50 [8]: 0.5 µg/mL (≈ 1.15 µM); MIC80 [8]: 0.5 µg/mL (≈ 1.15 µM); MIC [9]: ≤ 0.25 µg/mL; MIC50 [9]: ≤ 0.25 µg/mL; MIC80 [9]: ≤ 0.25 µg/mL
CCCCc1cccc(-c2cc(-c3nnn[nH]3)sc2Cc2ccc(Cl)cc2)c1 [DNM0606, 5-(4-(3-Butylphenyl)-5-(4-chlorobenzyl)thiophen-2-yl)-1H-tetrazole]	≤ 0.25	≤ 0.25	≤ 0.25	0.5 (≈ 1.22 µM)	0.5 (≈ 1.22 µM)	0.5 (≈ 1.22 µM)	0.5 (≈ 1.22 µM)	0.5 (≈ 1.22 µM)	0.5 (≈ 1.22 µM)	≤ 0.25	≤ 0.25	≤ 0.25	1 (≈ 2.45 µM)	0.5 (≈ 1.22 µM)	1 (≈ 2.45 µM)	≤ 0.25	≤ 0.25	≤ 0.25	1 (≈ 2.45 µM)	1 (≈ 2.45 µM)	MIC80 [7]: 1 µg/mL (≈ 2.45 µM); MIC [8]: ≤ 0.25 µg/mL; MIC50 [8]: ≤ 0.25 µg/mL; MIC80 [8]: ≤ 0.25 µg/mL; MIC [9]: 0.5 µg/mL (≈ 1.22 µM); MIC50 [9]: 0.5 µg/mL (≈ 1.22 µM); MIC80 [9]: 0.5 µg/mL (≈ 1.22 µM)
